The compounds below were run against T1, recombinant human GR (Homo sapiens, UniProt P04150) (assay: Human Glucocorticoid Receptor (GR) Assay, fluorescence polarization). Conditions: GS Red tracer, incubated 2 h at r.t., XLfit model 205, read-out: GRhuFL_FP_v2 Mean IC50.
T1 construct: purchased Panvera/Invitrogen P2812 (kit P2893)
T1 sequence (P04150 1-777): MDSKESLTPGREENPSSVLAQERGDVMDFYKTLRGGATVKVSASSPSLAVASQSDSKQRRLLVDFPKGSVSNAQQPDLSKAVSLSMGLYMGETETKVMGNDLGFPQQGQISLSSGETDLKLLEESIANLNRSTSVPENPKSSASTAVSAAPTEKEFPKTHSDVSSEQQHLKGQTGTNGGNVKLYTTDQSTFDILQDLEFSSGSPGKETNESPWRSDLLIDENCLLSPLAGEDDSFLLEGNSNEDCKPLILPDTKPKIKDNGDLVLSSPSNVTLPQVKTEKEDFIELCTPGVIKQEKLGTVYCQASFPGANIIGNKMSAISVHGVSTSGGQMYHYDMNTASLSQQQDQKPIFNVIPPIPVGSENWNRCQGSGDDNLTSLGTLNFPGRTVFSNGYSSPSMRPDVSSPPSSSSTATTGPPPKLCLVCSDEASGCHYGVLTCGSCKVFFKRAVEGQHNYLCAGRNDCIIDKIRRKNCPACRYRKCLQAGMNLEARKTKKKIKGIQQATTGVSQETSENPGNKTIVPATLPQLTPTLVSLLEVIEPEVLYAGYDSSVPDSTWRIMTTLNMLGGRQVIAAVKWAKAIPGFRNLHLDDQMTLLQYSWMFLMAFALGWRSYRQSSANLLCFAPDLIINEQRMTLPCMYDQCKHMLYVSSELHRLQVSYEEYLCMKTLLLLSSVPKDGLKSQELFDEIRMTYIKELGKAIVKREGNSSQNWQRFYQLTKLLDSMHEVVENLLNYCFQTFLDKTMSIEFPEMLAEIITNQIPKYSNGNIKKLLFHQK
Format: binding
Procedure, shortened: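 Fluorescence polarization kit assay: recombinant GR and GS Red fluorescent ligand with Stabilizing Peptide and DTT in potassium phosphate/sodium molybdate/EDTA screening buffer. Plates incubated 2 h in the dark at r.t.; DMSO served as 0% and dexamethasone as 100% control.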
Cc1cccc([C@@H](Oc2ccc3c(cnn3-c3ccc(F)cc3)c2)[C@H](C)NC(=O)c2ncc(C)s2)c1 [Example 207, N-[(1R,2S)-1-[1-(4-fluorophenyl)indazol-5-yl]oxy-1-(3-methylphenyl)propan-2-yl]-5-methyl-1,3-thiazole-2-carboxamide] showed an IC50 of 8.8 nM. COc1ccc([C@@H](Oc2ccc3c(cnn3-c3ccc(F)cc3)c2)[C@H](C)NC(=O)c2ncc(C)s2)cc1F [Example 198, N-[(1R,2S)-1-(3-fluoro-4-methoxy-phenyl)-1-[1-(4-fluorophenyl)indazol-5-yl]oxy-propan-2-yl]-5-methyl-1,3-thiazole-2-carboxamide] gave an IC50 of 3.8 nM. In the case of Cc1ccc([C@@H](Oc2ccc3c(cnn3-c3ccc(F)cc3)c2)[C@H](C)NC(=O)C(C)(C)F)c(C)c1 [Example 245, N-[(1R,2S)-1-(2,4-dimethylphenyl)-1-[1-(4-fluorophenyl)indazol-5-yl]oxy-propan-2-yl]-2-fluoro-2-methyl-propanamide], the IC50 is reported as 5.5 nM. For C[C@H](NC(=O)C(C)(C)C)[C@H](Oc1ccc2c(cnn2-c2ccc(F)cc2)c1)c1ccc(F)c(F)c1 [Example 172, N-[(1R,2S)-1-(3,4-difluorophenyl)-1-[1-(4-fluorophenyl)indazol-5-yl]oxy-propan-2-yl]-2,2-dimethyl-propanamide], the IC50 was 4.3 nM. Work on COc1cccc([C@@H](Oc2ccc3c(cnn3-c3ccc(F)cc3)c2)[C@H](C)NC(=O)c2ccco2)c1 [Example 86, N-((1R,2S)-1-(1-(4-fluorophenyl)-1H-indazol-5-yloxy)-1-(3-methoxyphenyl)propan-2-yl)furan-2-carboxamide] yielded an IC50 of 3.8 nM. COc1cccc([C@@H](Oc2ccc3c(cnn3-c3ccc(F)cc3)c2)[C@H](C)NC(=O)c2cnoc2C)c1 [Example 284, N-[(1R,2S)-1-[1-(4-fluorophenyl)indazol-5-yl]oxy-1-(3-methoxyphenyl)propan-2-yl]-5-methyl-1,2-oxazole-4-carboxamide] was tested, and the IC50 was 22 nM. Compound COc1cccc([C@@H](Oc2ccc3c(cnn3-c3ccc(F)cc3)c2)[C@H](C)NC(=O)c2sccc2C)c1 [Example 132, N-[(1R,2S)-1-[1-(4-fluorophenyl)indazol-5-yl]oxy-1-(3-methoxyphenyl)propan-2-yl]-3-methyl-thiophene-2-carboxamide] has an IC50 of 4.1 nM. COc1cccc([C@@H](Oc2ccc3c(cnn3-c3ccc(F)cc3)c2)[C@H](C)NC(=O)C(C)(F)F)c1 [Example 302, 2,2-difluoro-N-((1R,2S)-1-(1-(4-fluorophenyl)-1H-indazol-5-yloxy)-1-(3-methoxyphenyl)propan-2-yl)propanamide] gave an IC50 of 3.2 nM. In the case of C[C@H](NC(=O)c1ccco1)[C@H](Oc1ccc2c(cnn2-c2cccnc2)c1)c1ccccc1 [Example 114, N-[(1S,2R)-1-Methyl-2-phenyl-2-{[1-(3-pyridyl)-1H-indazol-5-yl]oxy}ethyl]furan-2-carboxamide], the IC50 is reported as 3.2 nM. In the case of C[C@H](NC(=O)CO)[C@H](Oc1ccc2c(cnn2-c2ccc(F)cc2)c1)c1ccc(C(F)(F)F)cc1 [Example 60, N-[(1R,2S)-1-[1-(4-fluorophenyl)indazol-5-yl]oxy-1-[4-(trifluoromethyl)phenyl]propan-2-yl]-2-hydroxy-acetamide], the IC50 is reported as 3.3 nM. Work on COc1cccc([C@@H](Oc2ccc3c(cnn3-c3ccc(F)cc3)c2)[C@H](C)NC(=O)[C@H](C)O)c1 [Example 58, (2S)-N-[(1R,2S)-1-[1-(4-fluorophenyl)indazol-5-yl]oxy-1-(3-methoxyphenyl)propan-2-yl]-2-hydroxy-propanamide] yielded an IC50 of 2.7 nM. For Cc1cnc(C(=O)N[C@@H](C)[C@H](Oc2ccc3c(cnn3-c3ccc(F)cc3)c2)c2ccc(F)c(F)c2)s1 [Example 193, N-[(1R,2S)-1-(3,4-difluorophenyl)-1-[1-(4-fluorophenyl)indazol-5-yl]oxy-propan-2-yl]-5-methyl-1,3-thiazole-2-carboxamide], the IC50 was 6.5 nM. Work on COCC(=O)N[C@@H](C)[C@H](Oc1ccc2c(cnn2-c2ccc(F)cc2)c1)c1ccc(C)cc1C [Example 261, N-[(1R,2S)-1-(2,4-dimethylphenyl)-1-[1-(4-fluorophenyl)indazol-5-yl]oxy-propan-2-yl]-2-methoxy-acetamide] yielded an IC50 of 5.7 nM. Work on C[C@H](NC(=O)C(F)(F)F)[C@H](Oc1ccc2c(cnn2-c2cccc(CO)c2)c1)c1ccccc1 [Example 144, 2,2,2-trifluoro-N-((1R,2S)-1-(1-(3-(hydroxymethyl)phenyl)-1H-indazol-5-yloxy)-1-phenylpropan-2-yl)acetamide] yielded an IC50 of 3 nM. Compound Cc1cnc(C(=O)N[C@@H](C)[C@H](Oc2ccc3c(cnn3-c3ccc(F)cc3)c2)c2cc(C)c(C)cc2C)s1 [Example 206, N-[(1R,2S)-1-[1-(4-fluorophenyl)indazol-5-yl]oxy-1-(2,4,5-trimethylphenyl)propan-2-yl]-5-methyl-1,3-thiazole-2-carboxamide] has an IC50 of 7.5 nM. For CCc1ccc([C@@H](Oc2ccc3c(cnn3-c3ccc(F)cc3)c2)[C@H](C)NC(=O)CF)cc1 [Example 50, N-[(1R,2S)-1-(4-ethylphenyl)-1-[1-(4-fluorophenyl)indazol-5-yl]oxy-propan-2-yl]-2-fluoro-acetamide], the IC50 was 2.9 nM.

— US8143290B2, “Chemical compounds 572” (AstraZeneca AB, priority 2006, dated 2012)
